Common to all, as to format: biochemical, Tripterygium wilfordii
Holding throughout (settings): NADPH with regenerating system, TwPOR3, Tris-HCl pH 7.5, 30 °C, 30 min; 14-hydroxylation

In experiment [1] the test system is T1, CYP82D274.
T1 construct: full-length CYP cloned from root cDNA, coexpressed with TwPOR3 (pESC-LEU) in Saccharomyces cerevisiae BY4741; yeast microsomes; with NADPH--cytochrome P450 reductase
In words: yeast microsomes, product […] by GC-MS, Michaelis-Menten fit.

Experiment [2] concerns T2, CYP82D263.
T2 construct: full-length CYP cloned from root cDNA, coexpressed with TwPOR3 (pESC-LEU) in Saccharomyces cerevisiae BY4741; yeast microsomes; with NADPH--cytochrome P450 reductase
In words: yeast microsomes, product […] by LC-TQ-MS/MS, Michaelis-Menten fit.

Experiment [3] concerns T1, CYP82D274. The description is as above.

In general, Km refers to the concentration of substrate that gives half-maximal velocity. In the case of `CC(C)C1=CCC2=C(CC[C@H]3C(C)(C)CCC[C@]23C)C1` [compound 5, miltiradiene], the Km in experiment [1] worked out at 47.3 ± 13 µM.
Consider `CC(C)c1ccc2c(c1)CC[C@H]1[C@](C)(C(=O)O)CCC[C@]21C` [compound 7, dehydroabietic acid], for which the Km was determined as 8.42 ± 1.89 µM in experiment [2] and 0.99 ± 0.17 µM in experiment [3].

The record behind these values is paper PMC9936527, “Tandemly duplicated CYP82Ds catalyze 14-hydroxylation in triptolide biosynthesis and precursor production in Saccharomyces cerevisiae” (Nature Communications, 2023).
